# Results taken from PubChem BioAssay AID1918998 (Molecular Pharmacology Branch, DTP, NCI, 2023).
# pIC50: −log10 of the molar value.
# System: 521955-158-R2-J5-PDC complex spheroid growth
# Test: Anticancer human tumor 521955-158-R2-J5-PDC patient-derived pancreatic carcinoma cell line growth inhibition [AhR]
# Settings: for pIC50: curve of first compound; for viability, T/C: stronger effect = lower value
# Summary of the method: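 Agents were dosed in half-log steps down from roughly clinical Cmax, or from 10 microM where Cmax was unknown, alone and with AhR antagonists. Read-out: percent test/control growth of tumor spheroids containing HUVEC and MSC stromal cells.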
# [1] = second compound 0.1 µM, first compound 0.0316 µM
# [2] = second compound 0.1 µM, first compound 0.1 µM
# [3] = second compound 0.1 µM, first compound 0.316 µM
# [4] = second compound 0.1 µM, first compound 1 µM
# [5] = second compound 0.1 µM, first compound 3.16 µM
# [6] = second compound 0.1 µM, first compound 10 µM
# [7] = second compound 0.316 µM, first compound 0.0316 µM
# [8] = second compound 0.316 µM, first compound 0.1 µM
# [9] = second compound 0.316 µM, first compound 0.316 µM
# [10] = second compound 0.316 µM, first compound 1 µM
# [11] = second compound 0.316 µM, first compound 3.16 µM
# [12] = second compound 0.316 µM, first compound 10 µM
# [13] = second compound 1 µM, first compound 0.0316 µM
# [14] = second compound 1 µM, first compound 0.1 µM
# [15] = second compound 1 µM, first compound 0.316 µM
# [16] = second compound 1 µM, first compound 1 µM
# [17] = second compound 1 µM, first compound 3.16 µM
# [18] = second compound 1 µM, first compound 10 µM
# [19] = second compound 3.16 µM, first compound 0.0316 µM
# [20] = second compound 3.16 µM, first compound 0.1 µM
# [21] = second compound 3.16 µM, first compound 0.316 µM
# [22] = second compound 3.16 µM, first compound 1 µM
# [23] = second compound 3.16 µM, first compound 3.16 µM
# [24] = second compound 3.16 µM, first compound 10 µM
# [25] = second compound 10 µM, first compound 0.0316 µM
# [26] = second compound 10 µM, first compound 0.1 µM
# [27] = second compound 10 µM, first compound 0.316 µM
# [28] = second compound 10 µM, first compound 1 µM
# [29] = second compound 10 µM, first compound 3.16 µM
# [30] = second compound 10 µM, first compound 10 µM
# 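For viability, T/C in this document: spheroids mix tumor cells with HUVEC endothelium and human MSC stroma; luminescence taken as viability surrogate after a week of drug exposure.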
pIC50 (second compound 0.1 µM),pIC50 (second compound 0.316 µM),pIC50 (second compound 1 µM),pIC50 (second compound 3.16 µM),pIC50 (second compound 10 µM),Structure (SMILES),"viability, T/C [1] [%]","viability, T/C [2] [%]","viability, T/C [3] [%]","viability, T/C [4] [%]","viability, T/C [5] [%]","viability, T/C [6] [%]","viability, T/C [7] [%]","viability, T/C [8] [%]","viability, T/C [9] [%]","viability, T/C [10] [%]","viability, T/C [11] [%]","viability, T/C [12] [%]","viability, T/C [13] [%]","viability, T/C [14] [%]","viability, T/C [15] [%]",other results
5.97,6.00,6.01,5.98,5.74,COc1cc(C2c3cc4c(cc3C(OC3OC5COC(C)OC5C(O)C3O)C3COC(=O)C23)OCO4)cc(OC)c1O (stereo not given) + Cc1cncc(-c2nc(NCCc3c[nH]c4ccccc34)c3ncn(C(C)C)c3n2)c1,102,107,85,52.6,29,25.8,107,101,93.2,49.1,27.4,19.2,106,111,86.5,"viability, T/C [16]: 50.2%; viability, T/C [17]: 27.9%; viability, T/C [18]: 23.6%; viability, T/C [19]: 112%; viability, T/C [20]: 126%; viability, T/C [21]: 118%; viability, T/C [22]: 50.9%; viability, T/C [23]: 34.4%; viability, T/C [24]: 26.2%; viability, T/C [25]: 179%; viability, T/C [26]: 126%; viability, T/C [27]: 118%; viability, T/C [28]: 56.9%; viability, T/C [29]: 31.6%; viability, T/C [30]: 25.1%"
> 7.50,> 7.50,> 7.50,7.14,6.97,COc1cccc2c1C(=O)c1c(O)c3c(c(O)c1C2=O)CC(O)(C(=O)CO)CC3OC1CC(N)C(O)C(C)O1 (stereo not given) + Cc1cncc(-c2nc(NCCc3c[nH]c4ccccc34)c3ncn(C(C)C)c3n2)c1,53.6,35.6,36.2,2.01,6.72,11.6,49,35,39.2,0.95,6.23,14.8,51.2,30.6,46.8,"viability, T/C [16]: 1.72%; viability, T/C [17]: 5.39%; viability, T/C [18]: 16.6%; viability, T/C [19]: 64.2%; viability, T/C [20]: 37.3%; viability, T/C [21]: 41.3%; viability, T/C [22]: 2.7%; viability, T/C [23]: 8.4%; viability, T/C [24]: 12.2%; viability, T/C [25]: 64.2%; viability, T/C [26]: 48.4%; viability, T/C [27]: 29%; viability, T/C [28]: 0.47%; viability, T/C [29]: 3.33%; viability, T/C [30]: 9.06%"
6.01,5.93,5.90,5.91,7.17,NS(=O)(=O)OCC1CC(n2ccc3c(NC4CCc5ccccc54)ncnc32)CC1O (stereo not given) + Cc1cncc(-c2nc(NCCc3c[nH]c4ccccc34)c3ncn(C(C)C)c3n2)c1,106,103,80.1,47.9,40.1,30.1,105,102,78.5,53.4,35.6,30.4,115,105,83.7,"viability, T/C [16]: 52.1%; viability, T/C [17]: 38%; viability, T/C [18]: 32.1%; viability, T/C [19]: 99.4%; viability, T/C [20]: 102%; viability, T/C [21]: 75.2%; viability, T/C [22]: 52.6%; viability, T/C [23]: 45%; viability, T/C [24]: 35.2%; viability, T/C [25]: 65.5%; viability, T/C [26]: 40.6%; viability, T/C [27]: 34.4%; viability, T/C [28]: 32.7%; viability, T/C [29]: 28.7%; viability, T/C [30]: 23.9%"
